Consider one compound from US12263140B1, “Methods of reducing the production of greenhouse gases from animals” (AGRICULTURAL SCIENCES LIMITED, priority 2023, dated 2025).

The data set has as its system sheep. Put plainly: Sheep exhalant breath trial after vitamin K1 drench (Douglas Bag type apparatus, Micro GC). Type of data set: in vivo. The method, then:
The sheep tested in this trial were ewe sheep. In this and all subsequent sheep trials, the sheep were yarded for 24 hours before the trial commenced, so their rumen was at least partially empty since they could not eat when yarded. In total, 60 sheep were tested in similar trials on two different sheep farms. The sheep in each trial were divided randomly into two equal groups, one group being an experimental group and the other group being a control group.
The sheep were driven into a race and each individual was drenched as they came to the end of the race. Sheep in the experimental group and control group were given a 50 ml drench prior to yard release and normal grazing and behaviour.
The sheep were let out to feed in a field and allowed to graze on grass freely. They were herded back at intervals and their exhalant breath captured. The breath exhalation of sheep was measured using the apparatus shown in FIG. 4, according to one or more embodiments, being an instrument based on Douglas Bag equipment for the sampling of exhalant breath from humans. Note that the air space in the tubes shown in FIG. 4 is exaggerated in the drawing, according to one or more embodiments. In reality, the air space may be kept to as small a volume as possible to avoid contamination of the exhalant breath with the dead air in the tubes. The gas impermeable bag used for exhalant breath capture must be as big as possible since methane is largely released periodically as a burp rather than in the exhalant breath.
The apparatus of FIG. 4 was designed specifically for use on sheep, according to one or more embodiments. On inspiration by the sheep, the valve opens and the sheep is able to breath in fresh air. On exhalation by the sheep, the valve closes and the exhaled air is directed in to the gas impermeable balloon. It is important that the balloon used is not expanded by the exhaled air, but is merely collected. Otherwise, back pressure may develop which has the potential to interfere with the breathing of the sheep. The valve could be either a flap valve or a table tennis ball. The latter was identified by the inventor as an ideal light weight valve.
The breath exhalant collected was analysed using an Agilent Micro GC with 2 dual columns: molecular sieve 5A and Plot-Q columns.
The six control sheep were drenched with 50 ml of 30% ethyl alcohol plus 50 ml water.
In this trial, the same trial was completed as in Example 3 above however, in this trial male sheep (rams) were trialed and the exhalant breath of the trial animals was tested over a time period of two days, samples taken on day 0, 1 and 2. Five rams were drenched with vitamin K1 and four rams were not drenched at all and used as controls.

`CC1=C(C/C=C(\C)CCC[C@H](C)CCC[C@H](C)CCCC(C)C)C(=O)c2ccccc2C1=O` [vitamin K1]: the “emitted methane in exhalant breath” value (ewes drenched with tincture plus water, versus control sheep) was “significant reduction”. Also, the “ill effects after dosing” value (ewes, drench) was “did not show any ill effects”. In addition, for the setting “rams, drench, day 2”, the “percentage decrease in methane production compared to control sheep” value is 71%. Also, the “amount of emitted gasses, carbon dioxide and methane” value (treated versus control sheep) is “marked lessening”.
